# pKi: −log10 of the molar value.
# Tests used:
# Coagulation factor X [1] = target: T1, Coagulation factor X (Homo sapiens, UniProt P00742); experiment: Inhibition of human fXa assessed as inhibition constant using Cbz-D-Arg-Gly-L-Arg-pNA as substrate preincubated for 30 mins followed by substrate addition and measured after 60 mins by […] method
# Coagulation factor X [2] = target: T1, Coagulation factor X; experiment: Inhibition of human fXa at 100 uM using Cbz-D-Arg-Gly-L-Arg-pNA as substrate preincubated for 30 mins followed by substrate addition and measured after 60 mins by […] method relative to control; settings: time 90.0 min
# T1 sequence (P00742 41-179 limits assumed): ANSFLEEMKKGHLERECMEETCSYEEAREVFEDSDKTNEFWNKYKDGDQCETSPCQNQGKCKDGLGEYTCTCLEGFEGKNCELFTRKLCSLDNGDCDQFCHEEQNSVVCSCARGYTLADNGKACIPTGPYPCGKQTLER
# T1 sequence (P00742 235-488 limits assumed): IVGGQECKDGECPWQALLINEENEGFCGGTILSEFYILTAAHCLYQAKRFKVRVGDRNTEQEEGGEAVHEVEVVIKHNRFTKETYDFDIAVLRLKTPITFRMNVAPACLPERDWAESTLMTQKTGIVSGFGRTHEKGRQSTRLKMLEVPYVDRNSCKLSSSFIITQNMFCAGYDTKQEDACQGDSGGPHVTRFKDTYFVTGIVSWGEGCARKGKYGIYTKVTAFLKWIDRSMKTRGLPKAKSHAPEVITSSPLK
SMILES,pKi (Coagulation factor X [1]),inhibition (Coagulation factor X [2])
CC(C)N1CCC(NC(=O)c2ccn(Cc3cc(-c4ccc(Cl)s4)on3)n2)CC1,7.43,–
CC(C)N1CCC(NC(=O)c2cc3cccnc3n2Cc2cc(-c3ccc(Cl)s3)on2)CC1,8.40,–
CC(C)N1CCC(NC(=O)c2nn(Cc3cc(-c4ccc(Cl)s4)on3)c3ccccc23)CC1,8.05,–
CC(C)N1CCC(NC(=O)c2cccn2Cc2cc(-c3ccc(Cl)s3)on2)CC1,7.24,–
CC(C)N1CCC(NC(=O)c2cn(Cc3cc(-c4ccc(Cl)s4)on3)cn2)CC1,4.83,–
C#Cc1ccc(NC(=O)Cn2c(C(=O)NC3CCN(C(C)C)CC3)cc3ccccc32)cc1,7.31,–
CC(C)N1CCC(NC(=O)c2cn(Cc3cc(-c4ccc(Cl)s4)on3)c3ccccc23)CC1,6.62,–
CC(C)N1CCC(NC(=O)c2cc3ccccc3n2Cc2cc(-c3ccc(Br)s3)on2)CC1,7.92,–
CC(C)N1CCC(NC(=O)c2cn(Cc3cc(-c4ccc(Cl)s4)on3)c3ncccc23)CC1,7.19,–
C#Cc1ccc(-c2cc(Cn3c(C(=O)NC4CCN(C(C)C)CC4)cc4ccccc43)no2)s1,7.89,–
CC(C)N1CCC(NC(=O)c2cc3ccccc3n2Cc2cc(-c3ccc(I)s3)on2)CC1,6.73,–
CC(C)N1CCC(NC(=O)c2c3ccccc3nn2Cc2cc(-c3ccc(Cl)s3)on2)CC1,8.10,–
Cc1ccc(-c2cc(Cn3c(C(=O)NC4CCN(C(C)C)CC4)cc4ccccc43)no2)s1,7.26,–
CC(C)N1CCC(NC(=O)c2cc3ccccc3n2Cc2cc(-c3cccs3)on2)CC1,6.79,–
CC(C)N1CCC(NC(=O)c2cc3ccccc3n2CC(=O)Nc2ccccc2)CC1,6.69,–
CC(C)N1CCC(NC(=O)c2ccn(Cc3cc(-c4ccc(Cl)s4)on3)c2)CC1,5.91,–
CC(C)N1CCC(NC(=O)c2nc3ccccc3n2Cc2cc(-c3ccc(Cl)s3)on2)CC1,9.30,–
CC(C)N1CCC(NC(=O)c2cc3ccccc3n2Cc2cc(-c3ccc(F)s3)on2)CC1,7.15,–
CC(C)N1CCC(NC(=O)c2ccnn2Cc2cc(-c3ccc(Cl)s3)on2)CC1,7.28,–

# Results, then the compound that gave them:
pKi (Coagulation factor X [1]),inhibition (Coagulation factor X [2]),SMILES
6.69,–,CC(C)N1CCC(NC(=O)c2ccn(CC(=O)Nc3ccc(Cl)cc3)n2)CC1
5.76,–,CC(C)N1CCC(NC(=O)c2nn(CC(=O)Nc3ccc(Cl)cc3)c3ccccc23)CC1
–,66%,CC(C)N1CCC(NC(=O)c2ccn(CC(=O)Nc3ccc(Cl)cc3)c2)CC1
7.96,–,CC(C)N1CCC(NC(=O)c2cc3cccnc3n2CC(=O)Nc2ccc(Cl)cc2)CC1
7.29,–,CC(C)N1CCC(NC(=O)c2cccn2CC(=O)Nc2ccc(Cl)cc2)CC1
5.53,–,CC(C)N1CCC(NC(=O)c2cn(CC(=O)Nc3ccc(Cl)cc3)c3ncccc23)CC1
7.25,–,Cc1ccc(NC(=O)Cn2c(C(=O)NC3CCN(C(C)C)CC3)cc3ccccc32)cc1
7.20,–,CC(C)N1CCC(NC(=O)c2cc3ccccc3n2CC(=O)Nc2ccc(F)cc2)CC1
5.29,–,CC(C)N1CCC(NC(=O)c2cn(CC(=O)Nc3ccc(Cl)cc3)c3ccccc23)CC1
4.69,–,CC(C)N1CCC(NC(=O)c2cn(CC(=O)Nc3ccc(Cl)cc3)cn2)CC1
8.15,–,CC(C)N1CCC(NC(=O)c2cc3ccccc3n2CC(=O)Nc2ccc(I)cc2)CC1
8.22,–,CC(C)N1CCC(NC(=O)c2nc3ccccc3n2CC(=O)Nc2ccc(Cl)cc2)CC1

# From ChEMBL document CHEMBL5104198, “Probing Factor Xa Protein-Ligand Interactions: Accurate Free Energy Calculations and Experimental Validations of Two Series of High-Affinity Ligands” (J Med Chem, 2022)
